Measured values from ChEMBL document CHEMBL1201862, “PubChem BioAssay data set” (2004).
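Protocol summary: plate cells (96-well), add compound at 5 concentrations, incubate 48 h, interpolate endpoints linearly. The concentration for 50% growth inhibition is given as GI50.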 Active and inactive are the calls of the source. No stated cut-off is given here; in the data, active = GI50 up to about 1.1 µM and inactive = higher.

Assays:
Test in all cases: NCI tumour cell line growth inhibition, 48 h
A549 = tested on: A549
EKVX = tested on: EKVX
HCT-116 = tested on: HCT-116
LOX IMVI = tested on: LOX IMVI
NCI-H460 = tested on: NCI-H460
OVCAR-8 = tested on: OVCAR-8
RPMI-8226 = tested on: RPMI-8226
SF-268 = tested on: SF-268
SK-MEL-28 = tested on: SK-MEL-28
SK-MEL-2 = tested on: SK-MEL-2
SNB-78 = tested on: SNB-78
SR = tested on: SR
U-251 = tested on: U-251
UACC-62 = tested on: UACC-62
CAKI-1 = tested on: CAKI-1
OVCAR-5 = tested on: OVCAR-5
SF-539 = tested on: SF-539

Measured: GI50

O=C(O)OC12CCCCCC1C(=O)C1CCCCC12 (stereo not given)
inactive: A549 > 100 µM | EKVX 82.4 µM | HCT-116 57.4 µM | LOX IMVI > 100 µM | NCI-H460 77.4 µM | OVCAR-8 > 100 µM | RPMI-8226 43.1 µM | SF-268 61.5 µM | SK-MEL-28 > 100 µM | SK-MEL-2 > 100 µM | SNB-78 > 100 µM | SR 47 µM | U-251 > 100 µM | UACC-62 71.3 µM

O=C(CCN1CCCC1)CC(c1ccccc1)c1c(O)c2ccccc2oc1=O (stereo not given)
inactive: A549 > 100 µM | EKVX > 100 µM | HCT-116 > 100 µM | LOX IMVI > 100 µM | NCI-H460 > 100 µM | OVCAR-8 > 100 µM | RPMI-8226 > 100 µM | SF-268 > 100 µM | SK-MEL-28 > 100 µM | SK-MEL-2 > 100 µM | SNB-78 > 100 µM | SR > 100 µM | U-251 > 100 µM | UACC-62 > 100 µM

O=C1C[C@@H]2[C@@H](CCC23CC3)N1
inactive: A549 > 100 µM | CAKI-1 > 100 µM | EKVX > 100 µM | HCT-116 > 100 µM | LOX IMVI > 100 µM | NCI-H460 > 100 µM | OVCAR-5 > 100 µM | OVCAR-8 > 100 µM | RPMI-8226 > 100 µM | SF-268 > 100 µM | SF-539 > 100 µM | SK-MEL-28 > 100 µM | SK-MEL-2 > 100 µM | SNB-78 > 100 µM | U-251 > 100 µM | UACC-62 > 100 µM

Cc1ccc(C[P+]2(c3ccccc3)CCCCC2)cc1.[O-][Cl+3]([O-])([O-])[O-]
inactive: A549 73.5 µM | EKVX 43.9 µM | HCT-116 1.33 µM | LOX IMVI 26.2 µM | NCI-H460 37.6 µM | OVCAR-5 55.2 µM | OVCAR-8 20.6 µM | RPMI-8226 7.43 µM | SF-539 25 µM | SK-MEL-28 27.7 µM | SK-MEL-2 30.9 µM | SNB-78 25.9 µM | SR 23.1 µM | U-251 12.5 µM | UACC-62 23 µM

CCCCCCCCCCC(=O)CC(=O)c1c(O)cccc1O
inactive: A549 32.4 µM | CAKI-1 41 µM | EKVX 38.5 µM | HCT-116 19.5 µM | LOX IMVI 18.7 µM | NCI-H460 34.7 µM | OVCAR-5 19.7 µM | OVCAR-8 35.7 µM | RPMI-8226 21.1 µM | SF-268 41.1 µM | SF-539 36.4 µM | SK-MEL-28 53.7 µM | SNB-78 33.5 µM | SR 33.6 µM | U-251 21.5 µM | UACC-62 41.9 µM

COc1ccc(Cc2c(=O)[nH]nc3ccccc23)cc1
inactive: A549 43.6 µM | CAKI-1 > 100 µM | EKVX > 100 µM | HCT-116 > 100 µM | LOX IMVI > 100 µM | NCI-H460 > 100 µM | OVCAR-5 > 100 µM | OVCAR-8 90.6 µM | RPMI-8226 > 100 µM | SF-268 > 100 µM | SF-539 > 100 µM | SK-MEL-28 > 100 µM | SK-MEL-2 > 100 µM | SNB-78 > 100 µM | UACC-62 > 100 µM

Cc1ccccc1/C=N/C12CC3CC(CC(C3)C1)C2
inactive: A549 > 100 µM | CAKI-1 > 100 µM | EKVX > 100 µM | HCT-116 > 100 µM | LOX IMVI > 100 µM | NCI-H460 > 100 µM | OVCAR-5 > 100 µM | OVCAR-8 > 100 µM | RPMI-8226 > 100 µM | SF-268 > 100 µM | SF-539 > 100 µM | SK-MEL-28 > 100 µM | SK-MEL-2 > 100 µM | SNB-78 > 100 µM | U-251 > 100 µM | UACC-62 > 100 µM

CCCOC(=O)C1CCC(=O)N1C(=O)C(Cl)Cl (stereo not given)
inactive: A549 > 100 µM | CAKI-1 > 100 µM | EKVX > 100 µM | HCT-116 > 100 µM | LOX IMVI > 100 µM | NCI-H460 > 100 µM | OVCAR-5 > 100 µM | OVCAR-8 > 100 µM | RPMI-8226 > 100 µM | SF-268 > 100 µM | SK-MEL-28 > 100 µM | SK-MEL-2 > 100 µM | SNB-78 > 100 µM | U-251 > 100 µM | UACC-62 > 100 µM

Cc1nc2ccc(N)cc2nc1O
inactive: A549 > 100 µM | CAKI-1 > 100 µM | EKVX > 100 µM | HCT-116 > 100 µM | LOX IMVI > 100 µM | NCI-H460 > 100 µM | OVCAR-5 > 100 µM | OVCAR-8 > 100 µM | RPMI-8226 > 100 µM | SF-539 > 100 µM | SK-MEL-2 > 100 µM | SNB-78 > 100 µM | U-251 > 100 µM | UACC-62 > 100 µM

O=C(NCC(O)CNC(=O)C(F)(F)F)C(F)(F)F
inactive: A549 > 100 µM | CAKI-1 > 100 µM | EKVX > 100 µM | HCT-116 > 100 µM | LOX IMVI > 100 µM | NCI-H460 > 100 µM | OVCAR-5 > 100 µM | OVCAR-8 > 100 µM | RPMI-8226 > 100 µM | SF-268 > 100 µM | SF-539 > 100 µM | SNB-78 > 100 µM | SR > 100 µM | U-251 > 100 µM | UACC-62 > 100 µM

COC(=O)C1(C)CCc2c(OC)ccc(OC)c2C1=O (stereo not given)
inactive: A549 > 100 µM | EKVX > 100 µM | HCT-116 > 100 µM | LOX IMVI > 100 µM | OVCAR-5 > 100 µM | OVCAR-8 > 100 µM | RPMI-8226 > 100 µM | SF-268 > 100 µM | SF-539 > 100 µM | SK-MEL-28 > 100 µM | SK-MEL-2 > 100 µM | SNB-78 > 100 µM | SR > 100 µM | U-251 > 100 µM | UACC-62 > 100 µM

COC(=O)C(C(=O)C(=O)Nc1ccc([N+](=O)[O-])cc1[N+](=O)[O-])c1nc2ccc(Cl)cc2nc1O (stereo not given)
inactive: A549 > 100 µM | CAKI-1 > 100 µM | EKVX 40.8 µM | HCT-116 > 100 µM | LOX IMVI > 100 µM | NCI-H460 > 100 µM | OVCAR-5 > 100 µM | OVCAR-8 > 100 µM | RPMI-8226 89.9 µM | SF-268 > 100 µM | SF-539 > 100 µM | SK-MEL-28 > 100 µM | SK-MEL-2 > 100 µM | SNB-78 > 100 µM | UACC-62 > 100 µM

Cc1ccccc1SC(/C=C/NNC1=NN=C(c2ccccc2)C(c2ccccc2)N1)c1ccccc1 (stereo not given)
inactive: A549 14.3 µM | CAKI-1 13.7 µM | EKVX 27.2 µM | LOX IMVI 33.8 µM | NCI-H460 34.9 µM | OVCAR-5 > 100 µM | OVCAR-8 13.7 µM | RPMI-8226 27.5 µM | SF-268 24.9 µM | SF-539 13.4 µM | SK-MEL-28 15.7 µM | SK-MEL-2 16.3 µM | SNB-78 22 µM | U-251 24.9 µM | UACC-62 29.4 µM
